{
  "source": "ChEMBL document CHEMBL1201862",
  "about": "“PubChem BioAssay data set” (2004)",
  "experiment_in_all_cases": "growth of human tumour cells (NCI), 48 h",
  "key": {"[1]": {"test_system": "HCC 2998"}, "[2]": {"test_system": "RPMI-8226"}, "[3]": {"test_system": "A549"}, "[4]": {"test_system": "SK-MEL-5"}, "[5]": {"test_system": "NCI-H460"}, "[6]": {"test_system": "TK-10"}, "[7]": {"test_system": "Malme-3M"}, "[8]": {"test_system": "OVCAR-5"}, "[9]": {"test_system": "HCT-15"}, "[10]": {"test_system": "OVCAR-3"}, "[11]": {"test_system": "SK-MEL-28"}, "[12]": {"test_system": "OVCAR-4"}, "[13]": {"test_system": "SK-MEL-2"}, "[14]": {"test_system": "CAKI-1"}, "[15]": {"test_system": "MCF7"}, "[16]": {"test_system": "M14"}, "[17]": {"test_system": "RXF 393"}, "[18]": {"test_system": "NCI-H23"}, "[19]": {"test_system": "NCI-H226"}, "[20]": {"test_system": "KM12"}, "[21]": {"test_system": "COLO 205"}, "[22]": {"test_system": "Hs-578T"}, "[23]": {"test_system": "EKVX"}, "[24]": {"test_system": "SNB-19"}, "[25]": {"test_system": "ACHN"}, "[26]": {"test_system": "PC-3"}, "[27]": {"test_system": "HL-60"}, "[28]": {"test_system": "SF-295"}, "[29]": {"test_system": "HOP-92"}, "[30]": {"test_system": "UO-31"}, "[31]": {"test_system": "786-0"}, "[32]": {"test_system": "IGROV-1"}, "[33]": {"test_system": "NCI-H522"}, "[34]": {"test_system": "U-251"}, "[35]": {"test_system": "K562"}, "[36]": {"test_system": "MDA-MB-435"}, "[37]": {"test_system": "HT-29"}, "[38]": {"test_system": "SNB-75"}, "[39]": {"test_system": "UACC-62"}, "[40]": {"test_system": "SF-539"}, "[41]": {"test_system": "SR"}, "[42]": {"test_system": "DU-145"}, "[43]": {"test_system": "SK-OV-3"}, "[44]": {"test_system": "UACC-257"}, "[45]": {"test_system": "MDA-MB-231"}, "[46]": {"test_system": "NCI/ADR-RES"}, "[47]": {"test_system": "OVCAR-8"}, "[48]": {"test_system": "MDA-N"}, "[49]": {"test_system": "LOX IMVI"}, "[50]": {"test_system": "T47D"}, "[51]": {"test_system": "BT-549"}, "[52]": {"test_system": "CCRF-CEM"}, "[53]": {"test_system": "A498"}, "[54]": {"test_system": "HCT-116"}, "[55]": {"test_system": "MOLT-4"}, "[56]": {"test_system": "SW-620"}},
  "note": "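Test compounds were applied to cells in 96-well plates for 48 hours at 5 doses. The concentration for 50% growth inhibition is given as GI50.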 Calls of active or inactive are those of the source. Rule as the data show it: active = GI50 up to about 1.1 µM and inactive = higher.",
  "data": [
    {"smiles": "CC1CCC2(CC1)N=C1CCC(C)CC1C1(CCC(C)CC1)N2", "note": "(stereo unspecified)", "values": [
      {"measurement": "GI50", "setting": "[1]", "value": "69 µM (inactive)"},
      {"measurement": "GI50", "setting": "[2]", "value": "82 µM (inactive)"},
      {"measurement": "GI50", "setting": "[3]", "value": "> 100 µM (inactive)"},
      {"measurement": "GI50", "setting": "[4]", "value": "29.7 µM (inactive)"},
      {"measurement": "GI50", "setting": "[5]", "value": "> 100 µM (inactive)"},
      {"measurement": "GI50", "setting": "[6]", "value": "> 100 µM (inactive)"},
      {"measurement": "GI50", "setting": "[7]", "value": "> 100 µM (inactive)"},
      {"measurement": "GI50", "setting": "[8]", "value": "> 100 µM (inactive)"},
      {"measurement": "GI50", "setting": "[9]", "value": 84.7, "unit": "µM"},
      {"measurement": "GI50", "setting": "[10]", "value": "> 100 µM (inactive)"},
      {"measurement": "GI50", "setting": "[11]", "value": "> 100 µM (inactive)"},
      {"measurement": "GI50", "setting": "[12]", "value": "> 100 µM (inactive)"},
      {"measurement": "GI50", "setting": "[13]", "value": "> 100 µM (inactive)"},
      {"measurement": "GI50", "setting": "[14]", "value": "> 100 µM (inactive)"},
      {"measurement": "GI50", "setting": "[15]", "value": "> 100 µM (inactive)"},
      {"measurement": "GI50", "setting": "[16]", "value": "> 100 µM (inactive)"},
      {"measurement": "GI50", "setting": "[17]", "value": "> 100 µM (inactive)"},
      {"measurement": "GI50", "setting": "[18]", "value": "95.7 µM (inactive)"},
      {"measurement": "GI50", "setting": "[19]", "value": "> 100 µM (inactive)"},
      {"measurement": "GI50", "setting": "[20]", "value": "> 100 µM (inactive)"},
      {"measurement": "GI50", "setting": "[21]", "value": "> 100 µM (inactive)"},
      {"measurement": "GI50", "setting": "[22]", "value": "> 100 µM (inactive)"},
      {"measurement": "GI50", "setting": "[23]", "value": "> 10 µM (inactive)"},
      {"measurement": "GI50", "setting": "[24]", "value": "> 100 µM (inactive)"},
      {"measurement": "GI50", "setting": "[25]", "value": "> 100 µM (inactive)"},
      {"measurement": "GI50", "setting": "[26]", "value": "41.2 µM (inactive)"},
      {"measurement": "GI50", "setting": "[27]", "value": "43.8 µM (inactive)"},
      {"measurement": "GI50", "setting": "[28]", "value": "> 100 µM (inactive)"},
      {"measurement": "GI50", "setting": "[29]", "value": "> 100 µM (inactive)"},
      {"measurement": "GI50", "setting": "[30]", "value": "> 100 µM (inactive)"},
      {"measurement": "GI50", "setting": "[31]", "value": "> 100 µM (inactive)"},
      {"measurement": "GI50", "setting": "[32]", "value": "> 100 µM (inactive)"},
      {"measurement": "GI50", "setting": "[33]", "value": "69.8 µM (inactive)"},
      {"measurement": "GI50", "setting": "[34]", "value": "78.7 µM (inactive)"},
      {"measurement": "GI50", "setting": "[35]", "value": "30.4 µM (inactive)"},
      {"measurement": "GI50", "setting": "[36]", "value": "> 100 µM (inactive)"},
      {"measurement": "GI50", "setting": "[37]", "value": "86.7 µM (inactive)"},
      {"measurement": "GI50", "setting": "[38]", "value": "19.6 µM (inactive)"},
      {"measurement": "GI50", "setting": "[39]", "value": "> 100 µM (inactive)"},
      {"measurement": "GI50", "setting": "[40]", "value": "> 100 µM (inactive)"},
      {"measurement": "GI50", "setting": "[41]", "value": "50.8 µM (inactive)"},
      {"measurement": "GI50", "setting": "[42]", "value": "> 100 µM (inactive)"},
      {"measurement": "GI50", "setting": "[43]", "value": "> 100 µM (inactive)"},
      {"measurement": "GI50", "setting": "[44]", "value": "83.6 µM (inactive)"},
      {"measurement": "GI50", "setting": "[45]", "value": "> 100 µM (inactive)"},
      {"measurement": "GI50", "setting": "[46]", "value": "> 100 µM (inactive)"},
      {"measurement": "GI50", "setting": "[47]", "value": "> 100 µM (inactive)"},
      {"measurement": "GI50", "setting": "[48]", "value": "73.8 µM (inactive)"},
      {"measurement": "GI50", "setting": "[49]", "value": "> 100 µM (inactive)"},
      {"measurement": "GI50", "setting": "[50]", "value": "67.3 µM (inactive)"},
      {"measurement": "GI50", "setting": "[51]", "value": "> 100 µM (inactive)"},
      {"measurement": "GI50", "setting": "[52]", "value": "24.3 µM (inactive)"},
      {"measurement": "GI50", "setting": "[53]", "value": "> 100 µM (inactive)"},
      {"measurement": "GI50", "setting": "[54]", "value": "36 µM (inactive)"},
      {"measurement": "GI50", "setting": "[55]", "value": "25.9 µM (inactive)"},
      {"measurement": "GI50", "setting": "[56]", "value": "79.3 µM (inactive)"}
    ]}
  ]
}
